What is called speed of sound is the propagation velocity of pressure waves in the medium. One may read the mass density as the mass of a sample divided by its volume.

Speed of sound and mass density data for two compounds are collected here from the NIST ThermoML archive (doi:10.1016/j.jct.2013.10.018).

Numbers after ± are expanded uncertainties.

The conditions of this data set: 101.33 kPa, Liquid; for speed of sound: Sing-around technique in a fixed-path interferometer; for mass density: Vibrating tube method.

For `CCCCCCCCCCO` [decan-1-ol], the speed of sound is, setting by setting: (298.15 K) 1380 ± 3 m/s; (303.15 K) 1363 ± 3 m/s; (308.15 K) 1346 ± 3 m/s; (313.15 K) 1329 ± 3 m/s; (318.15 K) 1312 ± 3 m/s; (323.15 K) 1296 ± 3 m/s. Besides, the mass density turned out to be 826.36 ± 0.24 kg/m3 (298.15 K); 822.88 ± 0.24 kg/m3 (303.15 K); 819.43 ± 0.24 kg/m3 (308.15 K); 815.97 ± 0.24 kg/m3 (313.15 K); 812.49 ± 0.24 kg/m3 (318.15 K); 809.03 ± 0.24 kg/m3 (323.15 K).
For the compound `CCCCCCCCO` [octan-1-ol], the speed of sound runs as follows: (298.15 K) 1349 ± 3 m/s; (303.15 K) 1332 ± 3 m/s; (308.15 K) 1315 ± 3 m/s; (313.15 K) 1299 ± 3 m/s; (318.15 K) 1282 ± 3 m/s; (323.15 K) 1265 ± 3 m/s. Besides, the mass density (298.15 K) was found to be 821.74 ± 0.26 kg/m3; the mass density (303.15 K) came to 818.26 ± 0.26 kg/m3; the mass density (308.15 K) was found to be 814.76 ± 0.26 kg/m3; the mass density (313.15 K) is recorded as 811.24 ± 0.26 kg/m3; the mass density (318.15 K) is listed as 807.69 ± 0.26 kg/m3; the mass density (323.15 K) is 804.12 ± 0.26 kg/m3.
